From US11905306B2 (priority 2021, dated 2024)

Experiments:
Toronto 2 SARS CoV-1 = assay: organism not typed; assay type: cell-based; conditions: Vero C1008, 72 h, read-out: SARS-1 EC50 (μM) VeroE6
USA_WA1/2020 SARS CoV-2 = assay: microbe, parasite or virus in culture; assay type: cell-based; conditions: Severe acute respiratory syndrome coronavirus 2, Vero C1008, 72 h, read-out: SARS-2 EC50 (μM) VeroE6
in vitro = conditions: African green monkey

Row | Compound | EC50 (Toronto 2 SARS CoV-1) [µM] | EC50 (USA_WA1/2020 SARS CoV-2) [µM] | CC50 (in vitro) [µM]
1 | CCOC(=O)Nc1ccc(C(=O)Nc2cccc(C#Cc3ccccn3)c2)cc1 [Compound 11, Ethyl (4-((3-(pyridin-2-ylethynyl)phenyl)carbamoyl)phenyl)carbamate] | 0.84 | 1.07 | > 30
2 | O=C(Nc1cccc(C#Cc2ccccn2)c1)c1ccc(N2CCCNC2=O)cc1 [Compound 15, 4-(2-Oxotetrahydropyrimidin-1(2H)-yl)-N-(3-(pyridin-2-ylethynyl)phenyl)benzamide] | 9.71 | 7.81 | > 30
3 | COc1cc(C#Cc2ccccn2)cc(C(=O)Nc2ccc(N3CCCCS3(=O)=O)cc2)c1 [Compound 75, N-(4-(1,1-dioxido-1,2-thiazinan-2-yl)phenyl)-3-methoxy-5-(pyridin-2-ylethynyl)benzamide] | 0.065 | 0.128 | > 30
4 | O=C(Nc1ccc(N2CCC2=O)cc1)c1cccc(C#Cc2ccccn2)c1 [Compound 57, N-(4-(2-oxoazetidin-1-yl)phenyl)-3-(pyridin-2-ylethynyl)benzamide] | 1.74 | 4.01 | > 30
5 | N#Cc1cc(C#Cc2ccccn2)cc(NC(=O)c2ccc(N3CCCCC3=O)cc2)c1 [Compound 78] | 1.54 | 1.97 | > 30
6 | O=C(Nc1cccc(C#Cc2ccccn2)c1)c1ccc(N2CCN(CC3CCC3)CC2=O)cc1 [Compound 33, 4-(4-(Cyclobutylmethyl)-2-oxopiperazin-1-yl)-N-(3-(pyridin-2-ylethynyl)phenyl)benzamide] | 4.62 | > 30 | > 30
7 | O=C1Nc2ccc(C(=O)Nc3cccc(C#Cc4ccccn4)c3)cc2CO1 [Compound 3, Oxo-N-(3-(pyridin-2-ylethynyl)phenyl)-1,4-dihydro-2H-benzo[d][1,3]oxazine-6-carboxamide] | > 30 | 11.6 | 15.8
8 | O=C(Nc1cccc(C#Cc2ccccn2)c1)c1ccc(N2CCN(C3CCC3)CC2=O)cc1 [Compound 32, 4-(4-Cyclobutyl-2-oxopiperazin-1-yl)-N-(3-(pyridin-2-ylethynyl)phenyl)benzamide] | 6.08 | 5.02 | 23.1
9 | O=C(Nc1cccc(C#Cc2ccccn2)c1)c1ccc(C(=O)NC2CC2)cc1 [Compound 37, N^1-cyclopropyl-N^4-(3-(pyridin-2-ylethynyl)phenyl)terephthalamide] | 2.12 | 4 | > 30
10 | O=C(Nc1cc(C#Cc2ccccn2)cc(OCC2CC2)c1)c1ccc(N2CCCCC2=O)cc1 [Compound 53, N-(3-(Cyclopropylmethoxy)-5-(pyridin-2-ylethynyl)phenyl)-4-(2-oxopiperidin-1-yl)benzamide] | 0.062 | 0.18 | > 30
11 | COc1cc(C#Cc2ccccn2)cc(NC(=O)c2ccc(N3CCCCS3(=O)=O)cc2)c1 [Compound 76] | 0.172 | 0.189 | > 30
12 | O=C(Nc1cccc(C#Cc2ccccn2)c1)c1ccc(NC(=O)N2CCOCC2)cc1 [Compound 13, N-(4-((3-(Pyridin-2-ylethynyl)phenyl)carbamoyl)phenyl)morpholine-4-carboxamide] | 7.94 | 8.25 | > 40
13 | O=C(Nc1ccc(C(O)(C(F)(F)F)C(F)(F)F)cc1)c1cccc(C#Cc2ccccn2)c1 [Compound 68, N-(4-(1,1,1,3,3,3-hexafluoro-2-hydroxypropan-2-yl)phenyl)-3-(pyridin-2-ylethynyl)benzamide] | 0.52 | 27.7 | 9.72
14 | CC(C)(C)c1ccc(NC(=O)c2cccc(C#Cc3ccccn3)c2)cc1 [Compound 67, N-(4-(tert-butyl)phenyl)-3-(pyridin-2-ylethynyl)benzamide] | 3.51 | 4.25 | > 30
15 | CC(=O)Nc1ccc(C(=O)Nc2cccc(C#Cc3ccccn3)c2)cc1O [Compound 30, 4-Acetamido-3-hydroxy-N-(3-(pyridin-2-ylethynyl)phenyl)benzamide] | 6.18 | 4.37 | > 30
16 | COc1ccc(C(=O)Nc2ccc(C(=O)Nc3cccc(C#Cc4ccccn4)c3)cc2)cc1 [Compound 27, 4-Methoxy-N-(4-((3-(pyridin-2-ylethynyl)phenyl)carbamoyl)phenyl)benzamide] | > 30 | > 30 | > 30
17 | O=C(Nc1ccc(NC(=O)N2CCC2)cc1)c1cccc(C#Cc2ccccn2)c1 [Compound 60, N-(4-(3-(pyridin-2-ylethynyl)benzamido)phenyl)azetidine-1-carboxamide] | 3.93 | 7.75 | > 30
18 | N#CC1(c2ccc(C(=O)Nc3cccc(C#Cc4ccccn4)c3)cc2)CC1 [Compound 45, 4-(1-Cyanocyclopropyl)-N-(3-(pyridin-2-ylethynyl)phenyl)benzamide] | 3.12 | 3.72 | 20.8
19 | O=C(Nc1ccc(C(=O)Nc2cccc(C#Cc3ccccn3)c2)cc1)c1ccc(O)cc1 [Compound 28, 4-Hydroxy-N-(4-((3-(pyridin-2-ylethynyl)phenyl)carbamoyl)phenyl)benzamide] | 17.1 | > 30 | > 30

Row | Compound | EC50 (Toronto 2 SARS CoV-1) [µM] | EC50 (USA_WA1/2020 SARS CoV-2) [µM] | CC50 (in vitro) [µM]
20 | CCN(C(C)=O)c1ccc(NC(=O)c2cccc(C#Cc3ccccn3)c2)cc1 [Compound 56, N-(4-(N-ethylacetamido)phenyl)-3-(pyridin-2-ylethynyl)benzamide] | 1.11 | 1.58 | > 30
21 | O=C(Nc1cccc(C#Cc2ccccn2)c1)c1ccc(N2CCCCS2(=O)=O)cc1 [Compound 77] | 0.791 | 0.957 | > 30
22 | Nc1cc(C#Cc2ccccn2)cc(NC(=O)c2ccc(N3CCCCC3=O)cc2)c1 [Compound 52, N-(3-Amino-5-(pyridin-2-ylethynyl)phenyl)-4-(2-oxopiperidin-1-yl)benzamide] | 26 | 26 | > 30
23 | COc1cc(C#Cc2ccccn2)cc(C(=O)Nc2ccc(N3CCCCC3=O)cc2)c1 [Compound 72, 3-methoxy-N-(4-(2-oxopiperidin-1-yl)phenyl)-5-(pyridin-2-ylethynyl)benzamide] | 0.24 | 0.51 | 26.6
24 | CN(C)c1ccc(C(=O)Nc2cccc(C#Cc3ccccn3)c2)cc1 [Compound 42, 4-(Dimethylamino)-N-(3-(pyridin-2-ylethynyl)phenyl)benzamide] | 1.57 | 6.52 | > 30
25 | CCC(=O)Nc1ccc(C(=O)Nc2cccc(C#Cc3ccccn3)c2)cc1 [Compound 6, 4-Propionamido-N-(3-(pyridin-2-ylethynyl)phenyl)benzamide] | 0.92 | 1.01 | > 30
26 | O=C(Nc1cccc(C#Cc2ccccn2)c1)c1ccc(C(=O)NC2CCC2)cc1 [Compound 38, N^1-cyclobutyl-N^4-(3-(pyridin-2-ylethynyl)phenyl)terephthalamide] | 0.75 | 1.64 | > 30
27 | O=C(Nc1ccc(C(=O)NC2CCCC2)cc1)c1cccc(C#Cc2ccccn2)c1 [Compound 62, N-(4-(cyclopentylcarbamoyl)phenyl)-3-(pyridin-2-ylethynyl)benzamide] | > 30 | 0.48 | > 30
28 | O=C(Nc1cccc(C#Cc2ccccn2)c1)c1ccc(C(=O)NC2CCCC2)cc1 [Compound 39, N^1-cyclopentyl-N^4-(3-(pyridin-2-ylethynyl)phenyl)terephthalamide] | 0.53 | 1 | > 40
29 | O=C(Nc1cccc(C#Cc2ccccn2)c1)c1ccc(-c2nnco2)cc1 [Compound 41, 4-(1,3,4-Oxadiazol-2-yl)-N-(3-(pyridin-2-ylethynyl)phenyl)benzamide] | 0.93 | 1.54 | > 30
30 | CC(=O)Nc1ccc(NC(=O)c2cccc(C#Cc3ccccn3)c2)cn1 [Compound 71, N-(6-acetamidopyridin-3-yl)-3-(pyridin-2-ylethynyl)benzamide] | 3.98 | 4.13 | > 30
31 | CC(=O)N(C)c1ccc(C(=O)Nc2cccc(C#Cc3ccccn3)c2)cc1 [Compound 19, 4-(N-methylacetamido)-N-(3-(pyridin-2-ylethynyl)phenyl)benzamide] | 2.19 | 3.92 | > 30
32 | CC1(C)CN(c2ccc(C(=O)Nc3cccc(C#Cc4ccccn4)c3)cc2)C1=O [Compound 21, 4-(3,3-Dimethyl-2-oxoazetidin-1-yl)-N-(3-(pyridin-2-ylethynyl)phenyl)benzamide] | 0.52 | 0.32 | > 30
33 | Cc1nc2ccc(C(=O)Nc3cccc(C#Cc4ccccn4)c3)cc2o1 [Compound 34, 2-Methyl-N-(3-(pyridin-2-ylethynyl)phenyl)benzo[d]oxazole-6-carboxamide] | 2.01 | 2.11 | 26.1
34 | COc1cc(C#Cc2ccccn2)cc(C(=O)Nc2ccc(CC3CC(=O)NC3=O)cc2)c1 (stereo not drawn) [Compound 79] | 4.45 | 8.19 | > 30
35 | O=C(Nc1cccc(C#Cc2ccccn2)c1)c1ccc(N2CCCCCC2=O)cc1 [Compound 25, 4-(2-Oxoazepan-1-yl)-N-(3-(pyridin-2-ylethynyl)phenyl)benzamide] | 0.52 | 1.09 | > 30
36 | O=C(Nc1cccc(C#Cc2ccccn2)c1)c1ccc(N2CC3(CCC3)C2=O)cc1 [Compound 35, 4-(1-Oxo-2-azaspiro[3.3]heptan-2-yl)-N-(3-(pyridin-2-ylethynyl)phenyl)benzamide] | 0.43 | 1.64 | > 30
37 | CN1CCN(c2ccc(C(=O)Nc3cccc(C#Cc4ccccn4)c3)cc2)C1=O [Compound 16, 4-(3-Methyl-2-oxoimidazolidin-1-yl)-N-(3-(pyridin-2-ylethynyl)phenyl)benzamide] | 0.75 | 1.28 | > 30
